Results reported in patent US5902794A (priority 1997, dated 1999).

Assays:
[1] = system: LX-1-Lung carcinoma; assay: growth of LX-1 human lung tumor xenograft; format: in vivo; conditions: 7 days, staging day
Protocol: (§1) Based on the findings with the L1210 leukemia model, the efficacy of the 8-Cl-cAMP-Na+ infusions were evaluated in advanced-stage human tumor xenograft models. Tumor fragments of approximately 14 mg were implanted subcutaneously in athymic CD-1 female mice and seven day intraperitoneal infusions of the cyclic nucleotide were initiated three weeks later when mean tumor weights had reached 300-400 mg. Tumor measurements were recorded on the initial day of treatment (staging day) and one day after treatment was completed (staging day+7), and were used to calculate changes in tumor weights.
(§2) *Mean tumor weight per group on staging day.
(§3) $Mean tumor weight per group on staging day +7.
(§4) **Change in test tumor wt (final initial)/initial test tumor wt. Used
(§5) where tumor size was reduced during treatment. Denoted by negative value.
(§6) $$Change in test tumor wt/change in control tumor wt. Used where test
(§7) tumor size increased during treatment. Denoted by positive value.

[2] = lethality in non-tumored BDF1 mice, single i.p. injection; format: in vivo, mouse; conditions: qd, day 1; for Toxic deaths, No. killed/No. treated: ip
Text: Influence of 8-Cl-cAMP-Na^+ on the life span of non-tumor
BDF1 mice when delivered i.p. by bolus injection

[3] = system: MDA-MB-231 mammary carcinoma; assay: growth of MDA-MB-231 human mammary tumor xenograft; format: in vivo; conditions: 7 days, staging day
Protocol: as §1, §2, §3
(§8) **Change in *test tumor wt (finalinitial)/initial test tumor wt. Used
(§9) where test tumor size was reduced during treatment. Denoted by negative
as §6, §7

[4] = system: MX-1 mammary carcinoma; assay: growth of MX-1 human mammary tumor xenograft; format: in vivo; conditions: 7 days, staging day
Protocol: as §1, §2, §3, §8, §9, §6, §7

[5] = system: two mammary, one lung, and one colon tumor; assay: human tumor xenografts in athymic mice; format: in vivo; conditions: seven day intraperitoneal infusions
Protocol: as §1

[6] = system: LOVO Colon carcinoma; assay: growth of LOVO human colon tumor xenograft; format: in vivo; conditions: 7 days; for Initial Mean Tumor Wt: staging day
Protocol: as §1, §2, §3, §4, §5, §6, §7

[7] = system: murine leukemia L1210; assay: life span of L1210-inoculated BDF1 mice; format: in vivo, mouse; conditions: for toxicity remark: ip, 24-hr infusion, day 1-5
Text: | Infusions by Harvard pumps.

[8] = system: human LoVo colon tumors; assay: subcutaneous infusion in athymic NCR-NU mice bearing human LoVo colon tumors; format: in vivo; conditions: s.c. infusion approx. 42 mg/kg/day (1 mg/mouse), seven days

Nc1ncnc2c1nc(Cl)n2[C@@H]1O[C@@H]2COP(=O)(O)O[C@H]2[C@H]1O [8-Cl-cAMP-Na^+]
Initial Mean Tumor Wt ([1]; 37 mg/kg/day ip infusion): 330 mg | Initial Mean Tumor Wt ([1]; 62 mg/kg/day ip infusion): 327 mg | Initial Mean Tumor Wt ([1]; 104 mg/kg/day ip infusion): 324 mg | Toxic deaths, No. killed/No. treated ([2]; 22 mg/kg/inj): 0 | Toxic deaths, No. killed/No. treated ([2]; 37 mg/kg/inj): 0 | Toxic deaths, No. killed/No. treated ([2]; 62 mg/kg/inj): 0 | Toxic deaths, No. killed/No. treated ([2]; 104 mg/kg/inj): 0 | mice killed (footnote) ([2]; 173 mg/kg): 2 of 5 | Toxic deaths, No. killed/No. treated ([2]; 173 mg/kg/inj): 2/5 | Toxic deaths, No. killed/No. treated ([2]; 288 mg/kg/inj): 5/5 | Toxic deaths, No. killed/No. treated ([2]; 480 mg/kg/inj): 5/5 | lethality (footnote) ([2]; 480 and 288 mg/kg): lethally toxic for all treated mice | lethality (footnote) ([2]; dosages lower than 173 mg/kg): not lethally | Initial Mean Tumor Wt ([3]; 37 mg/kg/day ip infusion): 367 mg | Initial Mean Tumor Wt ([3]; 62 mg/kg/day ip infusion): 375 mg | Initial Mean Tumor Wt ([3]; 104 mg/kg/day ip infusion): 367 mg | Initial Mean Tumor Wt ([4]; 62 mg/kg/day ip infusion): 337 mg | Initial Mean Tumor Wt ([4]; 104 mg/kg/day ip infusion): 346 mg | Initial Mean Tumor Wt ([4]; 173 mg/kg/day ip infusion): 375 mg | tumor growth during infusion, in words [5]: tumor stasis during treatment | % ΔT/T or % ΔT/ΔC ([6]; 37 mg/kg/day ip infusion): -01% | Initial Mean Tumor Wt ([6]; 37 mg/kg/day ip infusion): 288 mg | % ΔT/T or % ΔT/ΔC ([6]; 62 mg/kg/day ip infusion): -01% | Initial Mean Tumor Wt ([6]; 62 mg/kg/day ip infusion): 293 mg | Initial Mean Tumor Wt ([6]; 104 mg/kg/day ip infusion): 288 mg | mice killed (footnote) ([7]; 288 mg/kg, infused): 2 to 5 mice | toxicity remark ([7]; 288 mg/kg/day): toxic | toxicity remark ([7]; 480 mg/kg/day): toxic | toxicity remark ([7]; 800 mg/kg/day): toxic | lethality (footnote) ([7]; 800 and 480 mg/kg, infused): lethally toxic for all treated mice | toxicity [8]: appeared to be toxic
